# Patent publication US20260317356A1, “SMALL MOLECULE MODULATORS OF OGG1” (AZKARRA THERAPEUTICS, INC., priority 2023, published 2026)
# pIC50: −log10 of the molar value.
# Molecular target: hOGG1 (Homo sapiens, UniProt O15527)
# Test: Biochemical fluorescence assay to measure enzymatic activity of hOGG1 (OGG1/APEX IC50)
# Set-up: Protein His-hOGG1 (12-323) was prepared; His (N); host or cells: E. coli
# Conditions: 1 nM OGG1+2 nM APEX+6 nM dsDNA (8-oxo-dG substrate); pH 7.5; RT 40 min; read-out: OGG1/APEX IC50
# Procedure, shortened: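 Coupled glycosylase/AP-endonuclease read-out: 8-oxo-dG-containing dsDNA (6 nM) cleaved by 1 nM His-hOGG1 (12-323) plus 2 nM APEX1 over 40 min at room temperature, after 20 min enzyme–compound preincubation; buffer 20 mM Tris pH 7.5, 100 mM KCl, 0.1% BSA, 0.01% Tween. IC50 comes from sigmoidal 3-parameter fitting of % inhibition derived from TAMRA signal.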
# Chain of hOGG1 (O15527 12-323): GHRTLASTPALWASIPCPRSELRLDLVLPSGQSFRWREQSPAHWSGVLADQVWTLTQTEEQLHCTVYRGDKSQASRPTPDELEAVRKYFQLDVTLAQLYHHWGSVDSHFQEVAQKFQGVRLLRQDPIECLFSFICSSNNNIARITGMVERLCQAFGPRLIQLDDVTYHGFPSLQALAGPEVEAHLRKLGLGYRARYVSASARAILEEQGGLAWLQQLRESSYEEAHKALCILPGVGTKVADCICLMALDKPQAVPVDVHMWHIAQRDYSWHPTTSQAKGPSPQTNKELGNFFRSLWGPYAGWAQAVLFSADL
row,pIC50,SMILES
1,< 5.00,"COc1cc(NC(=O)[C@H]2CC[C@@H](N3Cc4cc(Br)ccc4C3=O)CC2)ccc1C [Example 170, (1s,4s)-4-(5-Bromo-1-oxoisoindolin-2-yl)-N-(3-methoxy-4-methylphenyl)cyclohexanecarboxamide]"
2,> 7.00,"COc1cc(NC(=O)[C@H]2CC[C@@H](N3Cc4c(Br)cc(NCC5CCCN5)cc4C3=O)CC2)ccc1C (stereo partly drawn) [Example 173, (1s,4s)-4-(4-Bromo-1-oxo-6-(pyrrolidin-2-ylmethylamino)isoindolin-2-yl)-N-(3-methoxy-4-methylphenyl)cyclohexanecarboxamide]"
3,5.00 to 6.00,"Cc1ccc(NC(=O)[C@H]2CC[C@@H](N3Cc4c(C)cccc4C3=O)CC2)cc1CO [Example 126, (1s,4s)-N-(3-(Hydroxymethyl)-4-methylphenyl)-4-(4-methyl-1-oxoisoindolin-2-yl)cyclohexane-1-carboxamide]"
4,5.00 to 6.00,"COc1ccc(NC(=O)[C@H]2CC[C@@H](N3Cc4c(C)cccc4C3=O)CC2)cn1 [Example 249, (1s,4s)-N-(6-Methoxypyridin-3-yl)-4-(4-methyl-1-oxoisoindolin-2-yl)cyclohexanecarboxamide]"
5,< 5.00,"Cc1cccc2c1CN([C@H]1CC[C@@H](C(=O)Nc3ccn(C)c(=O)c3)CC1)C2=O [Example 252, (1s,4s)-4-(4-Methyl-1-oxoisoindolin-2-yl)-N-(1-methyl-2-oxo-1,2-dihydropyridin-4-yl)cyclohexanecarboxamide]"
6,> 7.00,"COc1cc(NC(=O)[C@H]2CC[C@@H](N3Cc4c(C)ccc(C5CC5)c4NC3=O)CC2)ccc1C [Example 39, (1s,4s)-4-(8-Cyclopropyl-5-methyl-2-oxo-1,2-dihydroquinazolin-3(4H)-yl)-N-(3-methoxy-4-methylphenyl)cyclohexanecarboxamide]"
7,> 7.00,"COc1cc(NC(=O)[C@H]2CC[C@@H](N3Cc4c(C)cc(OCCN(C)C)cc4C3=O)CC2)ccc1C [Example 209, (1s,4s)-4-(6-(2-(Dimethylamino)ethoxy)-4-methyl-1-oxoisoindolin-2-yl)-N-(3-methoxy-4-methylphenyl)cyclohexanecarboxamide]"
8,< 5.00,"Cc1ncc(NC(=O)[C@H]2CC[C@@H](N3Cc4c(C)cccc4C3=O)CC2)s1 [Example 232, (1s,4s)-4-(4-Methyl-1-oxoisoindolin-2-yl)-N-(2-methylthiazol-5-yl)cyclohexanecarboxamide]"
9,6.00 to 7.00,"COc1cc(NC(=O)[C@H]2CC[C@@H](N3Cc4c(ccc(C#N)c4C)NC3=O)CC2)ccc1C [Example 56, (1s,4s)-4-(6-Cyano-5-methyl-2-oxo-1,2-dihydroquinazolin-3(4H)-yl)-N-(3-methoxy-4-methylphenyl)cyclohexanecarboxamide]"
10,5.00 to 6.00,"COc1cc(NC(=O)[C@H]2CC[C@@H](N3Cc4c(F)cccc4C3=O)CC2)ccc1C [Example 164, (1s,4s)-4-(4-Fluoro-1-oxoisoindolin-2-yl)-N-(3-methoxy-4-methylphenyl)cyclohexanecarboxamide]"
11,> 7.00,"COc1cc(NC(=O)[C@H]2CC[C@@H](N3Cc4c(C)cc(OCCN(C)C)cc4NC3=O)CC2)ccc1C [Example 82, (1s,4s)-4-(7-(2-(dimethylamino)ethoxy)-5-methyl-2-oxo-1,2-dihydroquinazolin-3(4H)-yl)-N-(3-methoxy-4-methylphenyl)cyclohexanecarboxamide]"
12,6.00 to 7.00,"COc1cc(NC(=O)[C@H]2CC[C@@H](N3Cc4c(C)cc(CO)cc4C3=O)CC2)ccc1C [Example 214, (1s,4s)-4-(6-(Hydroxymethyl)-4-methyl-1-oxoisoindolin-2-yl)-N-(3-methoxy-4-methylphenyl)cyclohexanecarboxamide]"
13,5.00 to 6.00,"Cc1cc(NCCN(C)C)cc2c1CN([C@H]1CC[C@@H](C(=O)Nc3ccn(CCO)n3)CC1)C2=O [Example 130, (1s,4s)-4-(6-((2-(Dimethylamino)ethyl)amino)-4-methyl-1-oxoisoindolin-2-yl)-N-(1-(2-hydroxyethyl)-1H-pyrazol-3-yl)cyclohexane-1-carboxamide]"
14,6.00 to 7.00,"C=Cc1ccc(NC(=O)[C@H]2CC[C@@H](N3Cc4c(C)cccc4C3=O)CC2)cc1OC [Example 122, (1s,4s)-N-(3-Methoxy-4-vinylphenyl)-4-(4-methyl-1-oxoisoindolin-2-yl)cyclohexane-1-carboxamide]"
15,> 7.00,"COc1cc(NC(=O)[C@H]2CC[C@@H](N3Cc4c(C)cc(C#N)cc4NC3=O)CC2)ccc1C [Example 31, (1s,4s)-4-(7-Cyano-5-methyl-2-oxo-1,2-dihydroquinazolin-3(4H)-yl)-N-(3-methoxy-4-methylphenyl)cyclohexanecarboxamide]"
16,> 7.00,"COc1cc(NC(=O)[C@H]2CC[C@@H](N3Cc4c(C)cc(OCCN5CCC5)cc4C3=O)CC2)ccc1C [Example 261, (1s,4s)-4-(6-(2-(Azetidin-1-yl)ethoxy)-4-methyl-1-oxoisoindolin-2-yl)-N-(3-methoxy-4-methylphenyl)cyclohexanecarboxamide]"
17,> 7.00,"COc1cc(NC(=O)[C@H]2CC[C@@H](N3Cc4c(Br)cc(NC5CNC5)cc4C3=O)CC2)ccc1C [Example 180, (1s,4s)-4-(6-(Azetidin-3-ylamino)-4-bromo-1-oxoisoindolin-2-yl)-N-(3-methoxy-4-methylphenyl)cyclohexanecarboxamide]"
18,> 7.00,"COc1cc(NC(=O)[C@H]2CC[C@@H](N3Cc4c(C)cnc(CNS(C)(=O)=O)c4NC3=O)CC2)ccc1C [Example 18, (1s,4s)-N-(3-Methoxy-4-methylphenyl)-4-(5-methyl-8-(methylsulfonamidomethyl)-2-oxo-1,2-dihydropyrido[3,4-d]pyrimidin-3(4H)-yl)cyclohexanecarboxamideoxamide]"
19,5.00 to 6.00,"COc1cc(NC(=O)[C@H]2CC[C@@H](N3Cc4c(cccc4C(F)F)C3=O)CC2)ccc1C [Example 172, (1s,4s)-4-(4-(Difluoromethyl)-1-oxoisoindolin-2-yl)-N-(3-methoxy-4-methylphenyl)cyclohexanecarboxamide]"
20,> 7.00,"COc1cc(NC(=O)[C@H]2CC[C@@H](N3Cc4c(C)ccc(C)c4NC3=O)CC2)ccc1C [Example 25, (1s,4s)-4-(5,8-Dimethyl-2-oxo-1,2-dihydroquinazolin-3(4H)-yl)-N-(3-methoxy-4-methylphenyl)cyclohexanecarboxamide]"
21,5.00 to 6.00,"CCc1ccc(NC(=O)[C@H]2CC[C@@H](N3Cc4c(C)cccc4C3=O)CC2)cc1C [Example 127, (1s,4s)-N-(4-Ethyl-3-methylphenyl)-4-(4-methyl-1-oxoisoindolin-2-yl)cyclohexane-1-carboxamide]"
22,6.00 to 7.00,"COc1cc(NC(=O)[C@H]2CC[C@@H](N3Cc4c(Cl)cccc4N(C)C3=O)CC2)ccc1C [Example 73, (1s,4s)-4-(5-chloro-1-methyl-2-oxo-1,2-dihydroquinazolin-3(4H)-yl)-N-(3-methoxy-4-methylphenyl)cyclohexanecarboxamide]"
23,< 5.00,"COc1ccc(NC(=O)[C@]2(C)CC[C@@H](N3Cc4c(C)cccc4NC3=O)CC2)cc1C#N (single isomer, unassigned) [Example 108, (1r,4r)-N-(3-cyano-4-methoxyphenyl)-1-methyl-4-(5-methyl-2-oxo-1,2-dihydroquinazolin-3(4H)-yl)cyclohexanecarboxamide]"
24,6.00 to 7.00,"COc1ncc(NC(=O)[C@H]2CC[C@@H](N3Cc4c(C)cccc4C3=O)CC2)cc1Cl [Example 221, (1s,4s)-N-(5-Chloro-6-methoxypyridin-3-yl)-4-(4-methyl-1-oxoisoindolin-2-yl)cyclohexanecarboxamide]"
